Among the data in PubChem BioAssay AID192 (DTP/NCI, 2004) are T/C values, retold here.

Several values for one entry are separate records, joined by “and”; a condition that tells them apart may be missing. Equal values may be shown once. Inconclusive results and toxic doses are left out. Square brackets hold non-standard residues; d marks the D form. Peptide text beside a SMILES is read from it. * marks the point of attachment. ξ: configuration not given here. Cbz = O=C(OCc1ccccc1)*; ξV = CC(C)C(N)C(=O)O; Sar = CNCC(=O)O

The assay relates to BDF1 mice, B16 melanoma ip, median survival T/C. As to the kind of experiment: NCI In Vivo Anticancer Drug Screen. Data for tumor model B16 Melanoma (intraperitoneal) in B6D2F1 (BDF1) mice. To be noted: endpoint: median survival time, higher = longer survival. The method, boiled down:
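Survival or tumor size is measured after treatment of tumor-bearing mice and normalised to the vehicle-treated control group.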

Setting [1] is: dose: 12.5 mg/kg/injection, schedule: Q01DX009 (ip), vehicle: saline with Tween-80.
The mark [2] stands for this setting: dose: 25.0 mg/kg/injection, schedule: Q01DX009 (ip), vehicle: saline with Tween-80.
The mark [3] stands for this setting: dose: 50.0 mg/kg/injection, schedule: Q01DX009 (ip), vehicle: saline with Tween-80.
Where [4] appears, read: dose: 200.0 mg/kg/injection, schedule: Q01DX009 (ip), vehicle: saline with Tween-80.
Where [5] appears, read: dose: 50.0 mg/kg/injection, schedule: Q01DX009 (ip), vehicle: Klucel (hydroxypropylcellulose) (HPC).
The mark [6] stands for this setting: dose: 100.0 mg/kg/injection, schedule: Q01DX009 (ip), vehicle: Klucel (hydroxypropylcellulose) (HPC).
Setting [7] is: dose: 200.0 mg/kg/injection, schedule: Q01DX009 (ip), vehicle: Klucel (hydroxypropylcellulose) (HPC).
The mark [8] stands for this setting: dose: 100.0 mg/kg/injection, schedule: Q01DX009 (ip), vehicle: saline with Tween-80.
The mark [9] stands for this setting: dose: 25.0 mg/kg/injection, schedule: Q01DX009 (ip), vehicle: saline.
[10] abbreviates: dose: 50.0 mg/kg/injection, schedule: Q01DX009 (ip), vehicle: saline.
[11] abbreviates: dose: 1.56 mg/kg/injection, schedule: Q01DX009 (ip), vehicle: saline.

On to `CC/C(=C(/CC)c1ccc(O)cc1)c1ccc(O)cc1`, for which the T/C reads like this: (dose: 6.25 mg/kg/injection, schedule: Q01DX009 (ip), vehicle: saline with Tween-80) 89 % of control; under setting [1], 89 % of control; under setting [2], 89 % of control and 102 % of control; under setting [3], 100 % of control; under setting [4], 97 % of control.

Regarding `O=S(=O)(O)O.[NH-]C1CCCCC1[NH-].[Pt+2]` (centres undefined), the T/C (dose: 0.32 mg/kg/injection, schedule: Q01DX009 (ip), vehicle: water) was 156 % of control and 167 % of control; the T/C (dose: 0.63 mg/kg/injection, schedule: Q01DX009 (ip), vehicle: dextrose) is 175 % of control; the T/C (dose: 0.63 mg/kg/injection, schedule: Q04DX003 (ip), vehicle: water) is 160 % of control; the T/C (dose: 1.25 mg/kg/injection, schedule: Q01DX009 (ip), vehicle: dextrose) is 163 % of control; the T/C (dose: 1.25 mg/kg/injection, schedule: Q04DX003 (ip), vehicle: water) is 163 % of control; the T/C (dose: 3.0 mg/kg/injection, schedule: Q01DX009 (ip), vehicle: water) is 150 % of control. The T/C is 150 % of control (dose: 4.0 mg/kg/injection, schedule: Q01DX009 (ip), vehicle: water) and 155 % of control (dose: 5.0 mg/kg/injection, schedule: Q04DX003 (ip), vehicle: water).

For `C=COCCCCCC(C)C`, the T/C was 97 % of control (dose: 25.0 mg/kg/injection, schedule: Q01DX009 (ip), vehicle: Klucel (hydroxypropylcellulose) (HPC)); 102 % of control under setting [5]; 86 % of control and 91 % of control under setting [6].

With `O=C1c2ccccc2S(=O)c2ccccc21`, the T/C under setting [6] is 97 % of control and the T/C under setting [7] was 93 % of control.

For `CNc1ccccc1Cc1ccccc1`, the T/C is 103 % of control under setting [5], 90 % of control under setting [6] and 99 % of control under setting [7].

As to `O=C1NC(=O)C(=Cc2cc3c(cc2Br)OCO3)C(=O)N1`, the T/C under setting [1] is 97 % of control, the T/C under setting [2] was 94 % of control and the T/C under setting [3] was 94 % of control.

Regarding `COc1cc2c(cc1OC)-c1ccc3cc4c(cc3c1N(C)C2)OCO4`, the T/C is, setting by setting: (dose: 5.0 mg/kg/injection, schedule: Q01DX009 (ip), vehicle: water) 103 % of control; (dose: 10.0 mg/kg/injection, schedule: Q01DX009 (ip), vehicle: water) 102 % of control; (dose: 20.0 mg/kg/injection, schedule: Q01DX009 (ip), vehicle: water) 100 % of control; (dose: 40.0 mg/kg/injection, schedule: Q01DX009 (ip), vehicle: water) 101 % of control; (dose: 80.0 mg/kg/injection, schedule: Q01DX009 (ip), vehicle: water) 102 % of control.

As for `COc1ccc2nc3cc(Cl)ccc3c(NC(C)CCCN(CCCl)CCCl)c2c1` (centres undefined), the T/C (dose: 0.12 mg/kg/injection, schedule: Q01DX009 (ip), vehicle: saline) is 114 % of control; the T/C (dose: 0.25 mg/kg/injection, schedule: Q01DX009 (ip), vehicle: saline) is 105 % of control; the T/C (dose: 0.5 mg/kg/injection, schedule: Q01DX009 (ip), vehicle: saline) was 105 % of control; the T/C (dose: 0.62 mg/kg/injection, schedule: Q04DX003 (ip), vehicle: saline with Tween-80) is 110 % of control; the T/C (dose: 1.25 mg/kg/injection, schedule: Q04DX003 (ip), vehicle: saline with Tween-80) is 110 % of control.

Take `CCCCCCCCCC(O)CCCCC` (centres undefined): the T/C is, setting by setting: (dose: 75.0 mg/kg/injection, schedule: Q04DX003 (ip), vehicle: saline with Tween-80) 102 % of control; (dose: 150.0 mg/kg/injection, schedule: Q04DX003 (ip), vehicle: saline with Tween-80) 94 % of control; (dose: 300.0 mg/kg/injection, schedule: Q04DX003 (ip), vehicle: saline with Tween-80) 100 % of control.

In the case of `CC(=O)OC(CC(O)(C(F)(F)F)C(F)(F)F)C(C)(C)C` (centres undefined), the T/C reads like this: under setting [1], 120 % of control; (dose: 12.5 mg/kg/injection, schedule: Q04DX003 (ip), vehicle: saline with Tween-80) 105 % of control; under setting [2], 117 % of control; (dose: 25.0 mg/kg/injection, schedule: Q04DX003 (ip), vehicle: saline with Tween-80) 105 % of control; under setting [3], 97 % of control; (dose: 50.0 mg/kg/injection, schedule: Q04DX003 (ip), vehicle: saline with Tween-80) 117 % of control.

For `CCCN(CCC)CCCCCCO`, the T/C reads like this: under setting [3], 102 % of control; under setting [8], 102 % of control; under setting [4], 99 % of control.

For `CS(=O)(=O)OCCN(CCOS(C)(=O)=O)c1ccc(/C=N/Nc2ncnc3nc[nH]c23)cc1`, the T/C is 115 % of control under setting [2]; 110 % of control under setting [3]; 105 % of control and 113 % of control under setting [8]; 91 % of control and 121 % of control (dose: 400.0 mg/kg/injection, schedule: Q04DX003 (ip), vehicle: saline with Tween-80).

Take `CCCCCCC(=O)CCCC(C)CCCC(C)C` (centres undefined): the T/C by setting is: under setting [6], 91 % of control; (dose: 100.0 mg/kg/injection, schedule: Q04DX003 (ip), vehicle: Klucel (hydroxypropylcellulose) (HPC)) 105 % of control; under setting [7], 88 % of control; (dose: 200.0 mg/kg/injection, schedule: Q04DX003 (ip), vehicle: Klucel (hydroxypropylcellulose) (HPC)) 94 % of control; (dose: 400.0 mg/kg/injection, schedule: Q04DX003 (ip), vehicle: Klucel (hydroxypropylcellulose) (HPC)) 88 % of control.

Regarding `CC(C)C(NC(=O)CN(C)C(=O)OCc1ccccc1)C(=O)O` (centres undefined) (Cbz-[Sar]-[ξV]-OH), the T/C is, setting by setting: (dose: 6.25 mg/kg/injection, schedule: Q01DX009 (ip), vehicle: saline) 96 % of control; (dose: 12.5 mg/kg/injection, schedule: Q01DX009 (ip), vehicle: saline) 104 % of control; under setting [9], 93 % of control; under setting [10], 97 % of control and 101 % of control.

Take `[Cl][Ni][Cl].[NH-]CCN1CC1.[NH-]CCN1CC1`: the T/C by setting is: (dose: 0.78 mg/kg/injection, schedule: Q01DX009 (ip), vehicle: saline) 98 % of control; under setting [11], 97 % of control; (dose: 3.12 mg/kg/injection, schedule: Q01DX009 (ip), vehicle: saline) 90 % of control.

For the molecule `CCN(CC)CCOC(=O)c1cccnc1`, the T/C is 100 % of control under setting [9]; 105 % of control under setting [10]; 102 % of control (dose: 100.0 mg/kg/injection, schedule: Q01DX009 (ip), vehicle: saline); 102 % of control (dose: 200.0 mg/kg/injection, schedule: Q01DX009 (ip), vehicle: saline); 100 % of control (dose: 400.0 mg/kg/injection, schedule: Q01DX009 (ip), vehicle: saline).

For `O=CC(O)C(O)C(O)C(O)C(=O)O.[NH-]C1CCCCC1[NH-].[Pt+2]` (centres undefined), the T/C runs as follows: (dose: 0.2 mg/kg/injection, schedule: Q01DX009 (ip), vehicle: saline) 105 % of control; under setting [11], 162 % of control.
